Test results reported in PubChem BioAssay AID2305 (GlaxoSmithKline (GSK), 2010).
pIC50: −log10 of the molar value. “And” between values parts separate entries of the source, which are not always exact repeats. Equal values may be shown once.

test system: P. falciparum 3D7 growth, pLDH absorbance; test: P. falciparum 3D7 growth inhibition, dose response, strain 3D7 (AID 2305)

Row | SMILES | pIC50
1 | CC1CCc2sc(-c3nnc(SC(C)C(=O)N4CCCC4)o3)cc2C1 (stereo unspecified) | 6.06
2 | CC(C)N1CCN(c2ccc(OCCCCN3CCN(c4cccc(Cl)c4Cl)CC3)cc2Cl)CC1 | 5.98
3 | CCCNCc1ccc(-c2ccc(CN(CCOC)C(=O)c3ccco3)cc2)nc1 | 6.00
4 | CCCCCCOc1ccc2ccccc2c1CNCCCCCCNCc1c(OCCCCCC)ccc2ccccc12 | 5.97
5 | COc1ccc2nccc([C@@H](O)CN3CCC(NCc4cc5cc([N+](=O)[O-])ccc5[nH]4)CC3)c2c1 | 6.92
6 | Oc1ccc(Nc2ccnc3cc(Cl)ccc23)cc1 | 6.13
7 | O=C(/C=C/c1ccc(Cl)c(Cl)c1)NCCCCCCN1CCN(C(=O)Nc2ccc(Cl)c(C(F)(F)F)c2)CC1 | 6.28
8 | CCN(CC)CCN(Cc1ccc(-c2ccc(Cl)s2)cc1)C(=O)Cn1c(CCc2cccc(F)c2F)nc(=O)c2ccccc21 | 5.94
9 | CCCCCCNC(=O)C1Cc2c([nH]c3ccc(C)cc23)C2(CCN(Cc3ccccc3)CC2)N1 (stereo unspecified) | 6.01
10 | Cc1cc(N(C)C2CCN(C)CC2)nc(Nc2ccc(Br)cc2)n1 | 6.32
11 | COc1cc2nc(N3CCC(CNC(=O)c4ccc(-c5ccc(-c6noc(C)n6)cc5C)cc4)CC3)nc(N)c2cc1OC | 6.66
12 | CC(C)CCNC(=O)C1Cc2c([nH]c3cc(Br)ccc23)C2(CCN(CCc3ccccc3)CC2)N1 (stereo unspecified) | 6.04
13 | O=S(=O)(c1cc2ccccc2s1)N(CCC(O)(C(F)(F)F)C(F)(F)F)Cc1cccc(O)c1 | 6.12
14 | O=C(NCc1cccs1)[C@H](Cc1ccccc1)Nc1ccnc(NCC2CCCCC2)n1 | 5.98
15 | Nc1ncc(Cc2cc(Cl)c(N)c3ncccc23)c(N)n1 | 5.95
16 | CN1CCN(c2ccnc3ccc(NC(=O)Nc4ccc(-c5ccncc5)c(C#N)c4)cc23)CC1 | 6.80
17 | c1cc(CNCCc2ccncc2)cc(-c2csc(-c3nc4ccccc4[nH]3)c2)c1 | 6.59
18 | Cc1ccc(C(=O)Nc2cccc([N+](=O)[O-])c2)cc1S(=O)(=O)N1CC(C)CC(C)C1 (stereo unspecified) | 6.10
19 | CC(C)(C)COc1ccc2c(N)n[nH]c2c1 | 6.10
20 | COc1ccc2nc(N(CCCn3ccnc3)C(=O)C=Cc3cccs3)sc2c1 | 5.98
21 | Clc1cccc(C=NNc2nc(Nc3ccccc3)nc(Nc3ccccc3)n2)c1 | 6.08
22 | CCOc1c(CNCCCNc2nc3ccccc3[nH]2)cc(I)cc1OC | 6.18
23 | CCOc1cc(Cc2cnc(N)nc2N)ccc1OC | 5.90
24 | O=C(Nc1ccc2c(c1)OCO2)NC1CCN(c2ccnc(Nc3ccc(F)cc3)n2)C1 (stereo unspecified) | 6.13

Row | SMILES | pIC50
25 | CN(C)c1ccc(-c2ccc(C(=O)NC3CCN(Cc4ccc(F)cc4)CC3)s2)cc1 | 5.98
26 | O=C(NCC1CCN(CCN2CCC(c3cn(CCO)c4ccccc34)CC2)CC1)c1ccc(-c2ccc(C(F)(F)F)cc2)cc1 | 6.36
27 | O=C(Nc1ccc(Cl)cn1)c1sc2ccccc2c1O | 5.98
28 | O=S(=O)(Nc1ccc(-c2ccc(CN3CCCC3)cc2)cc1)c1cccc2cccnc12 | 5.99
29 | CN(C)CCCOc1c(C(C)(C)C)cc(-c2cc(C(C)(C)C)c(OCCCN(C)C)c(C(C)(C)C)c2)cc1C(C)(C)C | 6.57
30 | O=C(COc1ccccc1)N(Cc1ccc(-c2ccc(CNC3Cc4ccccc4C3)cc2)cc1)C1CCNCC1 | 5.99
31 | O=C(/C=C/c1ccc(Cl)c(Cl)c1)N1CCC(CN2CCC(Cc3nc4ccccc4[nH]3)CC2)CC1 | 6.60
32 | O=C(CCc1cccnc1)Nc1cccc(-c2ccc(-c3nc4ccc(C(F)(F)F)cc4[nH]3)cc2)c1 | 6.06
33 | CN1CCC(NCc2ccc(-c3cccc(-c4nc5ccccc5[nH]4)c3)cc2)CC1 | 6.89
34 | Cn1c(NC2CCN(CC3CCN(C(=O)/C=C/c4ccc(Cl)c(Cl)c4)CC3)CC2)nc2ccccc21 | 6.82
35 | COc1ccc(CNC2CCN(c3ccc(NC(=O)c4cccc(Cl)c4)cc3)CC2)cc1OC | 5.99
36 | COC(=O)c1ccc2nc(-c3ccc(C(=O)NCc4ccc(Cl)c(Cl)c4)cc3)[nH]c2c1 | 6.07
37 | COc1ccc2ncc(Cl)c([C@H](O)CN3CCC(NCc4cc5c(cn4)OCCO5)CC3)c2c1 | 6.92
38 | CC(Cc1ccc(CNC(=O)NCc2ccc(CC(C)NCCc3cccc(Cl)c3)cc2)cc1)NCCc1cccc(Cl)c1 (stereo unspecified) | 6.16
39 | CNCCNCc1cccc(-c2ccc(-c3nc4ccc(C(F)(F)F)cc4[nH]3)s2)c1 | 6.09
40 | CC(C)NC[C@@H](O)[C@H](Cc1ccccc1)NC(=O)c1cc2c3c(c1)c(C(C)C)cn3CCS(=O)(=O)N2C | 6.74
41 | N#Cc1ccc(NC(=O)NC2CCN(CCCCCNC(=O)/C=C/c3ccc(Cl)c(Cl)c3)CC2)cc1 | 6.10
42 | COc1ccc(-c2cncc3ccc(C(=O)NCCCn4ccnc4)nc23)cc1 | 6.12
43 | Cc1ccccc1C1CCN(c2ncc(C(=O)NC3CC3)cc2Cl)CC1 | 6.15
44 | CC(=O)Nc1ccc(CN(Cc2cccc(OC(C)(C)C)c2)Cc2ccc3c(c2)OCCO3)cc1 | 6.85
45 | CCc1c(CCNCCCCCCNCCc2ccccc2)ccc(OC)c1OC | 6.10
46 | Cc1cc(NCCc2ccccc2)nc(/N=C(\N)Nc2cccc(Cl)c2)n1 | 6.74
47 | CC(C)(CNCc1ccccc1)c1nc(-c2ccc(Cl)c(O)c2)c(-c2ccncc2)[nH]1 | 6.27
48 | O=[N+]([O-])c1ccc(CNCCCCCCNCc2ccc([N+](=O)[O-])c3ccccc23)c2ccccc12 | 6.10

Row | SMILES | pIC50
49 | O=C(Nc1cccc(-c2nn3ncccc3c2-c2ccnc(Nc3cccc(-c4cnco4)c3)n2)c1)c1c(F)cccc1F | 6.77
50 | COc1ccc(O)c(C(=O)NCCc2ccc(OC)c(-c3ccc(C(C)(C)C)cc3)c2)c1 | 5.99
51 | CCCc1cc(NC2CCN(C)CC2)nc(Nc2cccc(OC)c2)n1 | 6.11
52 | O=C(N[C@@H](Cc1ccccc1)CN1CCC(Oc2ccc(F)cc2)CC1)c1ccc(OCCCN2CCCCC2)cc1 | 6.05
53 | COc1ccc(CN(C)CCCOc2ccc(NC(=O)C=Cc3ccc(C(C)(C)C)cc3)cc2)cc1OC | 6.07
54 | CCCC(C)N(Cc1ccc(C(C)(C)C)cc1)C(=O)c1ccc(OC)cc1 (stereo unspecified) | 6.96
55 | C=CCC(CC=C)N1C(=O)C(c2ccccc2)(c2ccccc2)N=C1N | 6.18
56 | CC(C)CNCc1ccc(-c2cccc(CNC3CCN(Cc4ccccc4)CC3)c2)cc1 | 6.62
57 | CCOC(=O)CCCc1cc(NC2CCN(C)CC2)nc(Nc2ccc(OC)cc2)n1 | 6.15
58 | Cc1cc(C)c(NC(=O)NC2CCN(CCCCCNC(=O)/C=C/c3ccc(Cl)c(Cl)c3)C2)c(C)c1 (stereo unspecified) | 6.72
59 | Cc1cccc2[nH]c(-c3ccc(-c4ccc(CN5CCC(N)C5)cc4)s3)nc12 (stereo unspecified) | 6.43
60 | COc1cccc(CN2CCCN(Cc3cccc(NC(=O)c4ccc(-c5ccccc5)cc4)c3)CC2)c1 | 6.62
61 | CC(C)COc1ccc(Cl)cc1Cc1nc(-c2nc3ccc(CN(C)C)cc3[nH]2)co1 | 6.15
62 | COc1cc(OC)cc(-c2nn(-c3ccc([N+](=O)[O-])cc3C#N)c(=S)n2Cc2ccco2)c1 | 6.24
63 | CC(CO)(CO)NCc1cc2ccc3ccsc3c2c2ccccc12 | 6.64
64 | CCOc1cc(C)ccc1C1CCN(CCCCNC(=O)c2nc(-c3ccc(C(F)(F)F)cc3)[nH]c2C)CC1 | 6.14
65 | N#Cc1cccc(C(=O)Nc2ccc(-c3cccc(CN4CCC(O)CC4)c3)cc2)c1 | 6.00
66 | Cc1cccc2[nH]c(-c3cccc(-c4cccc(NC(=O)c5csnn5)c4)c3)nc12 | 6.52
67 | CO/C(=C\C=C\c1cc2cc(Cl)c(Cl)cc2[nH]1)C(=O)NCCCN1CC(C)N(C)CC1C (stereo unspecified) | 5.95
68 | CC(CN(C)C)C(=O)Nc1cccc(-c2cccc(-c3nc4ccc(F)cc4[nH]3)c2)c1 (stereo unspecified) | 6.08
69 | COc1cccc2[nH]c(NCCCNCc3cc(Br)cc(Br)c3)nc12 | 6.02
70 | CN1CCN(CCCN(Cc2ccc(-c3ccc(CNCCc4ccccc4)cc3)cc2)C(=O)c2cccs2)CC1 | 5.84
71 | COc1cccc(/C=C/C(=O)NC2CCC(CN3CCC(c4c[nH]c5ccccc45)CC3)CC2)c1 (stereo unspecified) | 6.08 and 6.11
72 | COc1cc2ncnc(Nc3ccc(OCc4ccccc4)c(C(F)(F)F)c3)c2cc1OC | 6.60

Row | SMILES | pIC50
73 | COc1cc2nc(NCc3nc4ccccc4[nH]3)nc(N)c2cc1OC | 6.05
74 | Oc1cccc2ccc(Nc3ccccn3)nc12 | 6.12
75 | CCN(CCO)Cc1ccc(-c2ccc(NS(=O)(=O)c3cccc4cccnc34)cc2)cc1 | 6.00
76 | CC(C)CCNCc1ccc(OCc2cccc(C(=O)Nc3ccccc3)c2)c(I)c1 | 6.54
77 | Cc1[nH]c(C)c(-c2ccc(-c3ccc(OCC(F)(F)F)cc3)nc2)c(=O)c1Cl | 6.41
78 | CCOC(=O)CC[C@@H](NC(=O)c1ccc(NCc2ccc3ccc4nc(C)[nH]c(=O)c4c3c2)cc1F)C(=O)N[C@@H](Cc1c[nH]c2ccccc12)C(=O)OCC | 5.99
79 | CN1CCN(c2ccc(Nc3nccc(-c4c(-c5cccc(NC(=O)c6c(F)cccc6F)c5)nn5ccccc45)n3)cc2)CC1 | 6.96
80 | NC(=NCc1ccc(O)cc1)Nc1nc(-c2ccc(OCCCn3ccnc3)cc2)cs1 | 6.12
81 | COc1ccc(CNC2CCN(C)CC2)cc1-c1ccc(S(=O)(=O)NC2CCC2)c(C)c1 | 6.00
82 | CCc1nc2c(N)nc(N)nc2nc1-c1ccc(OC)cc1 | 5.92
83 | O=C(Nc1cccc(-c2nn3ccccc3c2-c2ccnc(Nc3ccc(NCCCN4CCOCC4)c(F)c3)n2)c1)c1c(F)cccc1F | 6.59
84 | O=C(NC1CCN(Cc2ccccc2)CC1)c1cc(-c2cccnc2)nc2ccc(Cl)cc12 | 6.12
85 | CCOc1cc(Cl)c(C(C)NC(=O)c2ccccc2)cc1OCC (stereo unspecified) | 6.06
86 | CS(=O)(=O)c1ccc(-c2nc(NCC3CCCCC3)cc(C(F)(F)F)n2)cc1 | 6.17
87 | O=C(NCCN1CCCC1)c1ccc(-c2ccc(-c3nc4ccc(C(F)(F)F)cc4[nH]3)s2)cc1 | 6.12
88 | CN(C)CCN(Cc1ccccc1)c1ccc([N+](=O)[O-])cc1C(F)(F)F | 6.11
89 | CCc1cc([C@H]2O[C@@H](n3cnc4c(NCC(c5ccccc5)c5ccccc5)nc(NCCNc5ccccn5)nc43)[C@H](O)[C@@H]2O)on1 | 6.05
90 | Cn1cnc(CCNC(=O)c2ccc(-c3cccc(-c4nc5ccccc5[nH]4)c3)cc2)c1 | 5.96
91 | N#Cc1ccc(-c2ccc(C(=O)NCCCCN3CCC(c4ccc5c(c4OCC(N)=O)CCCC5)CC3)cc2)cc1 | 6.01
92 | O=C(NC1CCC(CN2CCC(c3c[nH]c4ccccc34)CC2)CC1)c1cn(Cc2ccccc2)c2ccccc12 (stereo unspecified) | 5.95
93 | COc1cc(CN2CCC(CO)(Cc3cccc(C(F)(F)F)c3)CC2)c(Cl)cc1O | 6.05
94 | CCOc1ccccc1CNc1nccc(NCc2ccccc2OC)n1 | 5.83
95 | O=C(Nc1ccc(-c2cccc(-c3nc4ccc(F)cc4[nH]3)c2)cc1)Nc1ccsc1 | 6.16
96 | CC(Cc1ccc(OCCCCOc2ccccc2)cc1)NCCc1ccccc1Cl (stereo unspecified) | 6.74
